Laboratory results taken from article PMC7757987, “Antitumor Activity and Mechanism Study of Riluzole and Its Derivatives” (Iranian Journal of Pharmaceutical Research : IJPR, 2020).

Assays:
[1] = test system: HeLa (human cervical cancer cell line); test: CCK-8 anti-proliferative assay, HeLa; assay type: cell-based
Experimental: (§1) HeLa (human cervical cancer cell line), HepG2 (human liver cancer cell line), SP2/0 (mouse myeloma cell line), and LO2 (human normal liver cell line) were cultured in DMEM medium. Each medium was supplemented with 10% fetal bovine serum, 1% L-glutamine and 1% penicillin/streptomycin solution. The cell lines were kept in the incubator at 37 ℃ in a humidified atmosphere (90% RH) containing 5% CO2. […] The cell lines SP2/0 and MCF-7 were obtained from Laboratory Center of Shaanxi Province People’s Hospital.
(§2) 2×10^3 cells per well were planted into 96-well plates in 100 μL growth medium and incubated for 24 h. […] The mixture was incubated at 37 ℃ under a humidified 5% CO2 atmosphere. After incubation, 10 μL CCK-8 solution was added to each well and the cells were further incubated for 2 h at 37 ℃ according to the CCK-8 Technical Manual. Then, the OD value for each well was read at wavelength 450 nm to determine the cell viability on a microplate reader (Synergy HT, USA). […] The independent experiment was repeated at least three times. The percentage of growth inhibition was calculated as follows according to reference ([18]),
(§3) % of growth inhibition = [1 - absorbance of treated cells/absorbance of untreated cells] × 100%

[2] = test system: HepG2 (human liver cancer cell line); test: CCK-8 anti-proliferative assay, HepG2; assay type: cell-based
Experimental: as §1, §2, §3

[3] = test system: SP2/0 (mouse myeloma cell line); test: CCK-8 anti-proliferative assay, SP2/0; assay type: cell-based
Experimental: as §1, §2, §3

[4] = test system: MCF-7 (human breast cancer cell line); test: CCK-8 anti-proliferative assay, MCF-7; assay type: cell-based
Experimental: as §1, §2, §3

[5] = CCK-8 cytotoxicity assay, normal LO2 cells; assay type: cell-based, human; conditions: human, LO2 normal liver cells; CCK-8, 48 h, normal liver cells; read-out: Cytotoxicity (IC50) L02
Experimental: as §1, §2, §3

[6] = test system: LO2 (human normal liver cell line); test: CCK-8 cytotoxicity assay, normal LO2 cells; assay type: cell-based; conditions: CCK-8
Experimental: as §1, §2, §3

[7] = test system: HeLa cells; test: Scratch wound healing (anti-migration) assay; assay type: cell-based, human; conditions: 25 μmol/L, 24 h
Experimental: Once the monolayer was formed, a small scratch was made in the plate using a 10 μL pipette tip (0 h, day 1). The monolayer was once washed with PBS to remove debris or the detached cells from the monolayer. […] Images were taken using an inverted microscope ([19]). The experiments were performed in triplicate.
The relative scratch healing rate was calculated as follows according to reference ([20]),
Scratch healing rate = (scratch width at 0 h – the remaining scratch width at 24 h)/scratch width in 0 h×100%

[8] = test system: HeLa cells; test: Cell morphological assessment by Hoechst 33258 staining; assay type: cell-based, human; conditions: HeLa, 12.5, 25 and 50 μmol/L, 24 h
Experimental: The cell morphological assessment was carried out as described by Wang S ([21]). Morphological changes, such as chromosomal condensation and fragmentation in the nuclei of HeLa, were observed by Hoechst 33258 staining. In brief, HeLa cells were seeded at a concentration of 1×10^6 cells/well in 6-well plate and treated with compound 4a (12.5, 25 and 50 μmol/L) for 24 h. Subsequently, the cells were harvested and washed once with PBS and then fixed with 4% paraformaldehyde in PBS for 10 min. After staining with 10 mg/L Hoechst 33258 for 5 min, the cells were visualized under a fluorescent microscope (Nikon, Japan).

[9] = test system: HeLa cells; test: Flow cytometric analysis of the cell cycle (PI); assay type: cell-based, human; conditions: 24 h, control 3.66%
Experimental: Cell cycle assay was performed using the cell cycle and apoptosis analysis kit (Beyotime, China) and following the manufacturer’s instructions. The HeLa cells were treated with the indicated concentrations of compound 4a (12.5, 25 and 50 μmol/L) for 24 h. Next, the cells were harvested and washed twice with PBS. The cells were fixed with cold 70% ethanol for 12 h at 4 ℃ and were harvested and centrifuged at 1000 g for 5 min. Then, the cell density was adjusted to 1×10^6 cells/mL with PBS. Finally, the cells were stained with a propidium iodide (PI) solution (50 μg/mL). The number of cells in each phase of the cell cycle was analyzed by flow cytometry (FACSCalibur; BD Bioscience, USA).

[10] = test system: HeLa cells; test: Flow cytometric analysis of cell apoptosis (annexin V-FITC/PI); assay type: cell-based, human; conditions: 24 h, control 0.02%
Experimental: The cell apoptosis analysis was evaluated by using the annexin V-FITC apoptosis detection kit (Beyotime, China). Briefly, the HeLa cells (1×10^6 cells/well) were seeded into 6-well culture plates and incubated for 24 h. Then the cells were incubated for 24 h with the compound 4a (12.5, 25 and 50 μmol/L). The cells were then rinsed, resuspended in 60 μL binding buffer and incubated for 10 min with 5 μL annexin V-FITC at room temperature, followed by an addition of 120 μL binding buffer and 10 μL PI. The solutions were gently mixed and analyzed with the FACScan flow cytometry. The cells that were not treated were used as the control ([23]).

[11] = test system: Bax, Bcl-2, Caspase-3, Cleaved caspase-3, PI3K in HeLa cells; test: Western blot assay; assay type: cell-based, human; conditions: 24 h; for Ratio of Bax/Bcl-2: HeLa, control 0.072
Experimental: HeLa cells were seeded into 6-well plates at 10^6 cells per well with different concentrations of compound 4a (12.5, 25 and 50 μmol/L) and incubated at 37 ℃ for 24 h in the presence of 10% FBS. The controls were treated with vehicle (0.5% DMSO). The cells were lysed into ice-cold cell lysis buffer for 30 min and centrifuged at 13000 g for 15 min at 4 ℃. The protein concentrations of the supernatant were determined by a BCA protein Assay Kit. Equal amounts of protein lysates were separated on 10% SDS-PAGE (sodium dodecyl sulfate-polyacrylamide gel electrophoresis) and transferred onto PVDF membranes. The membranes were blocked with 5% non-fat milk in TBST (0.1% Tween 20 in TBS) buffer for 2 h, incubated with primary antibodies at 1:1000 dilutions at 4 ℃, and washed by TBST four times. Then, the membrane was immunobloted with Bax, Bcl-2, Caspase-3, Cleaved caspase-3, PI3K, and β-actin primary antibodies at 1:1000 dilutions at 4 °C for 12 h. After secondary incubation in horseradish peroxidase-conjugated secondary antibodies at 1:3000 at room temperature for 2 h, protein bands were visualized on X-ray film (Kodak, Japan) using ECL (Beyotime, China). The immunoblots were detected by densitometric analysis. Equal loading of protein in each lane was confirmed by probing with β-actin antibody ([24]).

For `CCNc1nc2ccc(OC(F)(F)F)cc2s1` [Compound 4a, 2-(N-ethylamine)-6-trifluoromethoxy-benzothiazole], the IC50 ([1]; Homo sapiens, HeLa, CCK-8, 48 h, read-out: Cytotoxicity (IC50) HeLa) was 7.76 ± 0.45 µM, the “Selectivity index (SI) HeLa” value ([1]; IC50 LO2 / IC50 HeLa) was 8.37 and the IC50 ([2]; Homo sapiens, HepG2, CCK-8, 48 h, read-out: Cytotoxicity (IC50) HepG2) was 33.7 ± 1.04 µM. For the same compound, the “Selectivity index (SI) HepG2” value ([2]; IC50 LO2 / IC50 HepG2) was 1.93, the “Selectivity index (SI) SP2/0” value ([3]; IC50 LO2 / IC50 SP2/0) was 1.27 and the IC50 ([3]; Mus musculus, CCK-8, 48 h, read-out: Cytotoxicity (IC50) SP2/0) was 51.1 ± 2.73 µM. For the same compound, the IC50 ([4]; Homo sapiens, MCF7, CCK-8, 48 h, read-out: Cytotoxicity (IC50) MCF-7) was 7.72 ± 0.53 µM, the “Selectivity index (SI) MCF-7” value ([4]; IC50 LO2 / IC50 MCF-7) was 8.41 and the IC50 at 48 h [5] was 65 ± 4.38 µM. For the same compound, the “Concentration up to which nontoxic to LO2 cells” value [6] was “up to 65 μmol/L”, the “Relative scratch healing rate” value [7] was “less than 20%” and the “Effect on HeLa cell migration” value ([7]; versus control group) was “significantly slower”. For the same compound, the “Nuclear morphology (Hoechst 33258)” value [8] was “nuclear condensation and fragmentation”, the “Cells in the G2/M phase” value ([9]; 12.5 μmol/L) was 3.85% and the “Cells in the G2/M phase” value ([9]; 25 μmol/L) was 6.63%. The “Cells in the G2/M phase” value ([9]; 50 μmol/L) was 8.00%, the “Early apoptotic rate (LR quadrant)” value ([10]; 12.5 μmol/L) was 4.76% and the “Early apoptotic rate (LR quadrant)” value ([10]; 25 μmol/L) was 9.63%. The “Early apoptotic rate (LR quadrant)” value ([10]; 50 μmol/L) was 19.81%, the “Ratio of Bax/Bcl-2” value ([11]; 12.5μM) was 0.087 and the “Ratio of Bax/Bcl-2” value ([11]; 25μM) was 1.092. The “Ratio of Bax/Bcl-2” value ([11]; 50μM) was 1.929, the “Expression level of Caspase-3” value ([11]; HeLa, 12.5, 25 and 50 μmol/L) was “not remarkably concentration-dependent change” and the “Expression level of PI3K” value ([11]; HeLa, 12.5, 25 and 50 μmol/L) was “not remarkably concentration-dependent change”. For the same compound, the “Expression of Bcl-2” value ([11]; HeLa, 12.5, 25 and 50 μmol/L) was “reduced”, the “Level of Bax” value ([11]; HeLa, 12.5, 25 and 50 μmol/L) was “increased” and the “Level of Cleaved caspase-3” value ([11]; HeLa, 12.5, 25 and 50 μmol/L) was “increased”. It also gave a melting point of 133 to 134 °C.
